{"source": "paper PMC10930102", "about": "(Journal of Enzyme Inhibition and Medicinal Chemistry, 2024)", "key": {"ALK": {"target": "T1, ALK (Homo sapiens, UniProt Q9UM73)", "T1 construct": "purchased Reaction Biology Corporation", "test": "ALK in vitro enzymatic assay (radioisotope P81 filter-binding, Reaction Biology)", "format": "biochemical", "settings": "20 μM ATP; ten-dose IC50 mode, duplicate, average"}, "HDAC1": {"target": "T2, HDAC1 (Homo sapiens, UniProt Q13547)", "T2 construct": "purchased Reaction Biology Corporation; host or cells: baculovirus expression system in SF9 cells", "test": "HDAC inhibition assay (fluorogenic peptide, Reaction Biology)", "format": "biochemical", "settings": "tested once, ten-dose starting at 30 µM"}, "HDAC6": {"target": "T3, HDAC6 (Homo sapiens, UniProt Q9UBN7)", "T3 construct": "purchased Reaction Biology Corporation; host or cells: baculovirus expression system in SF9 cells", "T3 sequence (Q9UBN7 1-1215)": "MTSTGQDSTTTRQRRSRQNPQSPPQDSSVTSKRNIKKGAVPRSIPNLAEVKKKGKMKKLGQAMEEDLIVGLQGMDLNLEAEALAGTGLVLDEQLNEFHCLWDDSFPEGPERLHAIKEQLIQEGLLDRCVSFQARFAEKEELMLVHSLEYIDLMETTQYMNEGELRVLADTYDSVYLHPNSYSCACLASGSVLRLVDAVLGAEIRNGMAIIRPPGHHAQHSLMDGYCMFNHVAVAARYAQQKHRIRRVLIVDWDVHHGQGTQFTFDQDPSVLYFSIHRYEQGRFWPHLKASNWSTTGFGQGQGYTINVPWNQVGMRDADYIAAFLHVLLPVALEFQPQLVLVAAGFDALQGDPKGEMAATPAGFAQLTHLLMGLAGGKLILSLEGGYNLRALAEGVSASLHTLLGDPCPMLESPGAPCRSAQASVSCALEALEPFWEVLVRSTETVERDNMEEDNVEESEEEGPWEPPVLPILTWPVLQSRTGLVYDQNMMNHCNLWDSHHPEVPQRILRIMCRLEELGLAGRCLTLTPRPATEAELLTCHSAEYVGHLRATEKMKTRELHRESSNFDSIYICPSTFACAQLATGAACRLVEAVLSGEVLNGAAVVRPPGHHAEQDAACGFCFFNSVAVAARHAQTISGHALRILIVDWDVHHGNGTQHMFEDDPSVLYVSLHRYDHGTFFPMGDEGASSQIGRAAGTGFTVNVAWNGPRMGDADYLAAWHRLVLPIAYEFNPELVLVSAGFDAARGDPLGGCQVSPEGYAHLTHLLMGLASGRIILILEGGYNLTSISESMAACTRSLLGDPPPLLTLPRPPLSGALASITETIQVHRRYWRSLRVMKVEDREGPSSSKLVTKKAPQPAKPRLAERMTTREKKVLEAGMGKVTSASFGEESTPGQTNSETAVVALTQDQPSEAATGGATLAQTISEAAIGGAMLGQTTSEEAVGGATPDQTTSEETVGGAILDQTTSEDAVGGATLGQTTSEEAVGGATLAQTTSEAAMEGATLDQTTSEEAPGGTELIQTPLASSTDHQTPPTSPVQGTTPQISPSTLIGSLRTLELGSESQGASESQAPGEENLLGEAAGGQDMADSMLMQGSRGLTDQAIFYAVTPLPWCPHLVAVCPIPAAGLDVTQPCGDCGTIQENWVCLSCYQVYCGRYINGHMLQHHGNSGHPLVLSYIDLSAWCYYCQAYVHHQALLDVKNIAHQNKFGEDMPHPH", "test": "HDAC inhibition assay (fluorogenic peptide, Reaction Biology)", "format": "biochemical", "settings": "tested once, ten-dose starting at 30 µM"}, "A549": {"tested_on": "A549", "test": "SRB antiproliferation assay", "format": "cell-based", "settings": "Homo sapiens, 48 h, read-out: Antiproliferative activity (IC50) A549"}, "MCF7": {"tested_on": "MCF7", "test": "SRB antiproliferation assay", "format": "cell-based", "settings": "Homo sapiens, 48 h, read-out: Antiproliferative activity (IC50) MCF7"}, "U87MG": {"tested_on": "U87MG", "test": "SRB antiproliferation assay", "format": "cell-based", "settings": "Homo sapiens, U-87 MG, 48 h, read-out: Antiproliferative activity (IC50) U87MG"}, "H2228": {"tested_on": "H2228", "test": "SRB antiproliferation assay", "format": "cell-based", "settings": "Homo sapiens, NCI-H2228, 48 h, ALK-addicted cells, read-out: Antiproliferative activity (IC50) H2228"}, "EGFR": {"target": "T4, EGFR (Homo sapiens, UniProt P00533)", "T4 construct": "purchased Reaction Biology Corporation", "T4 sequence (P00533 25-1210)": "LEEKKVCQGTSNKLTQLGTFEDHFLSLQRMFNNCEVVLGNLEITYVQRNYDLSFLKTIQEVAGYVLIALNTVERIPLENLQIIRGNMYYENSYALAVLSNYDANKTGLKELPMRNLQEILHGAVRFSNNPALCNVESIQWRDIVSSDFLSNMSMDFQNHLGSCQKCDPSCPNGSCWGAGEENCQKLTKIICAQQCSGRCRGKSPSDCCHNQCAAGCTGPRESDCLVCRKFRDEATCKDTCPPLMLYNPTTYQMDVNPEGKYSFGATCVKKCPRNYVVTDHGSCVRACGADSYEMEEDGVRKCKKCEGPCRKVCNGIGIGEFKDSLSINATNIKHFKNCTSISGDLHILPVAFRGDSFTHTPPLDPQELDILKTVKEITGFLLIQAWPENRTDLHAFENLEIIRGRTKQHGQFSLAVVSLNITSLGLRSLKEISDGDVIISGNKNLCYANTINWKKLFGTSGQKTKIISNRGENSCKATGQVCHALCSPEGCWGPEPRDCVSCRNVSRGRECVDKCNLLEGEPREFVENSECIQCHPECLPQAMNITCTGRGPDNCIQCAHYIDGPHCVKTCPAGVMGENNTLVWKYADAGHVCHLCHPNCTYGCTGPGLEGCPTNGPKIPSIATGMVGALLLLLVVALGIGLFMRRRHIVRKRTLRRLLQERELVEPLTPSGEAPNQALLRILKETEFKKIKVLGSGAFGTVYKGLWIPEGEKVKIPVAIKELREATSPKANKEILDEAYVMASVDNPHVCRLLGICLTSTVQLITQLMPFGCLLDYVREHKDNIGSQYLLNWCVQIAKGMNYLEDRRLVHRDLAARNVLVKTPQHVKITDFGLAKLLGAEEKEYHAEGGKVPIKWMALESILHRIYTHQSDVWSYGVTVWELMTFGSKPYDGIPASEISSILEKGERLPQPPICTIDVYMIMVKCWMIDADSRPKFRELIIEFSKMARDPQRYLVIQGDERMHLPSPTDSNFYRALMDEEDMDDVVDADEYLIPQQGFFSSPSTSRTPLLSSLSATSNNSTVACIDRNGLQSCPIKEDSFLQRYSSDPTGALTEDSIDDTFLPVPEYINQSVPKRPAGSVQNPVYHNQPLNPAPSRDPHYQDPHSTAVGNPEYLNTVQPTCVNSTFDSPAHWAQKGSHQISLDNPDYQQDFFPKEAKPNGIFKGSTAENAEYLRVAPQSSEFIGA", "test": "RTK in vitro enzymatic assay", "format": "biochemical", "settings": "20 μM ATP"}, "VEGFR2": {"target": "T5, VEGFR2 (Homo sapiens, UniProt P35968)", "T5 construct": "purchased Reaction Biology Corporation", "test": "RTK in vitro enzymatic assay", "format": "biochemical", "settings": "20 μM ATP"}, "ALK G1269A": {"target": "T6, ALK G1269A (Homo sapiens, UniProt Q9UM73, G1269A)", "T6 construct": "purchased Reaction Biology Corporation", "test": "ALK mutant in vitro enzymatic assay", "format": "biochemical", "settings": "20 μM ATP"}, "[1]": {"tested_on": "phosphorylation level of Y1604 on ALK", "test": "Western blot of ALK phosphorylation in H2228 cells", "format": "cell-based, human", "settings": "6 h, 3b 2 µM, 3c 4 µM", "from_the_text": "(§1) Figure 4. Effect of test compounds on H2228 cells. […] (A) Western blots of phosphorylated tyrosine residue 1640 on ALK as well as acetylated (Ac) α-tubulin and histone H3 with their corresponding total proteins for normalisation. GAPDH was used as a loading control. (B) Quantification of western blotting results using Image J. Error bars indicate ± S.D.E. *p-Value ≤ 0.05, **p-value ≤ 0.01, ***p-value ≤ 0.001.\n(§2) Treated cells were washed three times with ice-cold phosphate-buffered saline and lysed in lysis buffer containing 100 mM Tris-HCl, 12 mM sodium deoxycholate, 12 mM sodium lauroylsarcosinate, and protease inhibitor cocktail (BioTools). Cells were heated in lysis buffer at 95 °C for 5 min and then the cell membrane was broken up by sonication (Bioruptor). Cellular debris and unbroken cells were removed by centrifugation (12,500 × g for 30 min, 4 °C). Protein concentration was determined using the bicinchoninic acid assay (Thermo). Cell extracts (20 μg) were resolved by 12% sodium dodecyl sulfate-polyacrylamide gel electrophoresis (SDS-PAGE), transferred to PVDF membranes, and probed separately with antibodies for Ac-histone H3, Ac-α-tubulin, histone H3, α-tubulin, HDAC1, HDAC6, HDAC8 and GAPDH. The antibodies of GAPDH, HDAC1, and HDAC8 were purchased from ABclonal and all other antibodies were from Cell Signalling Technology. Antibody signals were detected using an enhanced chemiluminescence system."}, "[2]": {"tested_on": "acetylation level of α-tubulin, a substrate of HDAC6", "test": "Western blot of acetylated α-tubulin in H2228 cells", "format": "cell-based, human", "settings": "6 h, 3b 2 µM", "from_the_text": "as §1\nas §2, with “The antibodies of GAPDH, HDAC1, and HDAC8 were purchased from ABclonal and all other antibodies were from Cell Signalling Technology.” left out"}, "CYP1A2": {"target": "T7, CYP1A2 (Homo sapiens, UniProt P05177)", "T7 construct": "purchased Reaction Biology Corporation; host or cells: CYP cDNA baculovirus expression systems", "T7 sequence (P05177 whole entry)": "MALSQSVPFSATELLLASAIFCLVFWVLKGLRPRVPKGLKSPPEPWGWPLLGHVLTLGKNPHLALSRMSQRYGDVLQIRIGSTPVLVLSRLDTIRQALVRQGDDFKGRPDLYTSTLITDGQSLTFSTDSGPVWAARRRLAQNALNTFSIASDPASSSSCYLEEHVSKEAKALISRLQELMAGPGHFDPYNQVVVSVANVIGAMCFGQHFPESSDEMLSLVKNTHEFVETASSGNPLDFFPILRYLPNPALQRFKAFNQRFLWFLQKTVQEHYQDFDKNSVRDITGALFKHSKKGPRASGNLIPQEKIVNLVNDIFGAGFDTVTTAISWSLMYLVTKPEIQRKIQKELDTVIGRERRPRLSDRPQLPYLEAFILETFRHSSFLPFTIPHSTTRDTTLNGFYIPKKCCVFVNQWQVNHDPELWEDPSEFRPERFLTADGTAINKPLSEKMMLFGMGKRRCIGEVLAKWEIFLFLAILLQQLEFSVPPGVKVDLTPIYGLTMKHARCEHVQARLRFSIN", "test": "CYP450 inhibition assay", "format": "in vitro ADME", "settings": "human recombinant enzyme; read-out: IC50 CYP1A2"}, "CYP2D6": {"target": "T8, CYP2D6 (Homo sapiens, UniProt P10635)", "T8 construct": "purchased Reaction Biology Corporation; host or cells: CYP cDNA baculovirus expression systems", "T8 sequence (P10635 whole entry)": "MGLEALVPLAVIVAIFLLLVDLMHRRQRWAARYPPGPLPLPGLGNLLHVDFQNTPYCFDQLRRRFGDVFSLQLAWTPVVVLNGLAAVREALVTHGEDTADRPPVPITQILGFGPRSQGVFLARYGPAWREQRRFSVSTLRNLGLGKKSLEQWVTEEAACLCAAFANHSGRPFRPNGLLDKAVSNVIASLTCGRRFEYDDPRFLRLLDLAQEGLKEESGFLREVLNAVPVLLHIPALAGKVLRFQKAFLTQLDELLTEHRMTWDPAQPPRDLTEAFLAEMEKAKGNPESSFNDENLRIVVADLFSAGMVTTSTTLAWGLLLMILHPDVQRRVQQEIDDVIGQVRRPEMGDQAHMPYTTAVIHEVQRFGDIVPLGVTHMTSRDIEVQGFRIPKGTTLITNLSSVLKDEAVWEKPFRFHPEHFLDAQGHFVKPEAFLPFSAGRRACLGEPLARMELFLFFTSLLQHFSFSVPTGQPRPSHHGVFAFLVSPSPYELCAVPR", "test": "CYP450 inhibition assay", "format": "in vitro ADME", "settings": "human recombinant enzyme"}, "CYP3A4": {"target": "T9, CYP3A4 (Homo sapiens, UniProt P08684)", "T9 construct": "purchased Reaction Biology Corporation; host or cells: CYP cDNA baculovirus expression systems", "T9 sequence (P08684 whole entry)": "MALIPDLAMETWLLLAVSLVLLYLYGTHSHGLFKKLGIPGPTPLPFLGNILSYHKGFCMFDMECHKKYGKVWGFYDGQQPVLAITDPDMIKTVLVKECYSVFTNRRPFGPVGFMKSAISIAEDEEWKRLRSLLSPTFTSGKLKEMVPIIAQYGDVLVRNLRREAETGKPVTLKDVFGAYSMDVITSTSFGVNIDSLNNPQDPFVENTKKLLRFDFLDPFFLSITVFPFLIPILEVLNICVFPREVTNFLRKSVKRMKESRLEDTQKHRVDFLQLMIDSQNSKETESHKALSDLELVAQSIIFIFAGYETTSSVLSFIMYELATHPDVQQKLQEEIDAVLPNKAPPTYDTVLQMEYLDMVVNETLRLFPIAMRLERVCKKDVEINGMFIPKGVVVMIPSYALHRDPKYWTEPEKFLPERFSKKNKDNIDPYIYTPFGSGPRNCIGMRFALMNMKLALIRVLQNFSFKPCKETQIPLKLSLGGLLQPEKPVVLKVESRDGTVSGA", "test": "CYP450 inhibition assay", "format": "in vitro ADME", "settings": "human recombinant enzyme"}, "hERG": {"target": "T10, hERG (Homo sapiens, UniProt Q12809)", "T10 construct": "purchased", "T10 sequence (Q12809 whole entry)": "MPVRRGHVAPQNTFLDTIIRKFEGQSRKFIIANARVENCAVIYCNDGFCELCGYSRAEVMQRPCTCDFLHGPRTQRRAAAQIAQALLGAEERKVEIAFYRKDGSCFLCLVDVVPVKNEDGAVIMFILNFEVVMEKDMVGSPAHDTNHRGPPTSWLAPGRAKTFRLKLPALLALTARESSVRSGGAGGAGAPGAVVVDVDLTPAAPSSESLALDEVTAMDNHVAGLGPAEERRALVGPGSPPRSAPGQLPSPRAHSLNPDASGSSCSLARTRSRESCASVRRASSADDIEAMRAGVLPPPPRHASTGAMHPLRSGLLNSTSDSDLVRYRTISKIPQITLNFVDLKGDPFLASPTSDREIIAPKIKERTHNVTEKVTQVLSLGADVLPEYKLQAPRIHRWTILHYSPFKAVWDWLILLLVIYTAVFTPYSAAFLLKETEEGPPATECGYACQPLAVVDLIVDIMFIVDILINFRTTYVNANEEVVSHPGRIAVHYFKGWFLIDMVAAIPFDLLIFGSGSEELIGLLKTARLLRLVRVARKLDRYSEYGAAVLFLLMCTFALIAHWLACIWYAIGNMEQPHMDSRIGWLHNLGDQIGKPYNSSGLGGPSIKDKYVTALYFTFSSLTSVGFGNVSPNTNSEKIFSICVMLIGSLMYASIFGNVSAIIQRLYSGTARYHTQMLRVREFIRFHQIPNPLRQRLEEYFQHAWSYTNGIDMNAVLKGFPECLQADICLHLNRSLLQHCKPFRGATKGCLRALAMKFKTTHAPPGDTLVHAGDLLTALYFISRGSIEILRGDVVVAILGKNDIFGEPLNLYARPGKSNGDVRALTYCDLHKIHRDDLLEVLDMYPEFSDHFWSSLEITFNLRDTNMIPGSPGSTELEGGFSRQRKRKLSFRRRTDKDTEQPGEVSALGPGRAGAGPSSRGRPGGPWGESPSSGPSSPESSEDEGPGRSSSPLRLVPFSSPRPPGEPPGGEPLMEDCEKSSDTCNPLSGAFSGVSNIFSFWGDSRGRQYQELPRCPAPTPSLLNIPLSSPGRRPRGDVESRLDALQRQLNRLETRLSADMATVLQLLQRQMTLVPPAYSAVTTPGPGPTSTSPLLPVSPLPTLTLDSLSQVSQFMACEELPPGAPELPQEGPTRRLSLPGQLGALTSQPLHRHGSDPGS", "test": "hERG binding competition assay (Predictor hERG Tracer Red)", "settings": "binding competition with fluorescent tracer"}}}
{"smiles": "CC(C)NC(=O)C1CCC(n2c(=NC(=O)c3ccccc3)[nH]c3cc(C=CC(=O)NO)ccc32)CC1", "note": "[Compound 3b, (E)-N-(5-((E)-3-(Hydroxyamino)-3-oxoprop-1-en-1-yl)-1-((1S,4S)-4-(isopropylcarbamoyl)cyclohexyl)-1H-benzo[d]imidazol-2(3H)-ylidene)benzamide]", "values": [{"measurement": "IC50", "setting": "ALK", "result": 16, "unit": "nM"}, {"measurement": "IC50", "setting": "HDAC1", "result": 10800, "unit": "nM"}, {"measurement": "IC50", "setting": "HDAC6", "result": 1030, "unit": "nM"}, {"measurement": "IC50", "setting": "A549", "result": "330 ± 30", "unit": "nM"}, {"measurement": "IC50", "setting": "MCF7", "result": "550 ± 10", "unit": "nM"}, {"measurement": "IC50", "setting": "U87MG", "result": "620 ± 100", "unit": "nM"}, {"measurement": "IC50", "setting": "H2228", "result": "440 ± 60", "unit": "nM"}, {"measurement": "IC50", "setting": "EGFR", "result": "> 10000", "unit": "nM"}, {"measurement": "IC50", "setting": "VEGFR2", "result": "> 10000", "unit": "nM"}, {"measurement": "IC50", "setting": "ALK G1269A", "result": 50, "unit": "nM"}, {"measurement": "phosphorylation level of Y1604 on ALK", "setting": "[1]", "result": "significantly decreased"}, {"measurement": "acetylation level of α-tubulin", "setting": "[2]", "result": "obviously elevated"}, {"measurement": "IC50", "setting": "CYP1A2", "result": 12700, "unit": "nM"}, {"measurement": "IC50", "setting": "CYP2D6", "result": "> 10000", "unit": "nM"}, {"measurement": "IC50", "setting": "CYP3A4", "result": 9370, "unit": "nM"}, {"measurement": "IC50", "setting": "hERG", "result": "> 10000", "unit": "nM"}, {"measurement": "IC50 hERG", "setting": "hERG", "result": "no inhibitory affect"}]}
